Legend:
[1] = tested on: Dirofilaria immitis microfilariae; experiment: In vitro assay 3: Dirofilaria immitis microfilariae (DIROIM L1), motility; conditions: 72 h, reduction of motility vs negative control, 72 h incubation
Cooperia curticei = experiment: In vitro assay 5: Cooperia curticei (COOPCU), larval mortality; conditions: 120 h, read-out: activity (percentage of larval mortality)
Protocol: In Vitro Assay 5: Cooperia curticei (COOPCU)
Solvent: Dimethyl Sulfoxide
Approximately 40 nematode larvae (Cooperia curticei) are transferred into a test tube containing the compound solution.
After 5 days percentage of larval mortality is recorded. 100% efficacy means all larvae are killed; 0% efficacy means no larvae are killed.

[2] = tested on: Litomosoides sigmodontis third-stage larvae; experiment: In vitro assay 7: Litomosoides sigmodontis L3 (LTMOSI), motility; conditions: 72 h, reduction of motility vs negative control, 72 h incubation
Protocol: In Vitro Assay 7: Litomosoides Siqmodontis L3 (LTMOSI)
10 Litomosoides sigmodontis third-stage larvae, which were freshly isolated from the pleural cavity of an infected rodent, were added to wells of a microtitre plate containing a nutrient medium and the test compound in DMSO. Compounds were tested in concentration-response assay in duplicate. Larvae exposed to DMSO and no test compounds were used as negative controls. Larvae were evaluated after 72 h of incubation with the compound. Efficacy was determined as the reduction of motility in comparison to the negative control. Based on the evaluation of a wide concentration range, concentration-response curves as well as ECso-values were calculated.

[3] = log P by HPLC on reversed phase columns (Method L0; [a] acidic, [b] neutral range)
Protocol: Calibration was done with straight-chain alkan-2-ones (with 3 to 16 carbon atoms) with known log P values (measurement of log P values using retention times with linear interpolation between successive alkanones). Lambda-max-values were determined using UV-spectra from 200 nm to 400 nm and the peak values of the chromatographic signals.

C. elegans Slo-1a = C. elegans Slo-1a (Caenorhabditis elegans, UniProt Q95V25); experiment: In vitro assay 1: C. elegans Slo-1a, action at a recombinant C. elegans CHO cell line (membrane potential measurement)
Sequence of C. elegans Slo-1a (Q95V25 whole entry): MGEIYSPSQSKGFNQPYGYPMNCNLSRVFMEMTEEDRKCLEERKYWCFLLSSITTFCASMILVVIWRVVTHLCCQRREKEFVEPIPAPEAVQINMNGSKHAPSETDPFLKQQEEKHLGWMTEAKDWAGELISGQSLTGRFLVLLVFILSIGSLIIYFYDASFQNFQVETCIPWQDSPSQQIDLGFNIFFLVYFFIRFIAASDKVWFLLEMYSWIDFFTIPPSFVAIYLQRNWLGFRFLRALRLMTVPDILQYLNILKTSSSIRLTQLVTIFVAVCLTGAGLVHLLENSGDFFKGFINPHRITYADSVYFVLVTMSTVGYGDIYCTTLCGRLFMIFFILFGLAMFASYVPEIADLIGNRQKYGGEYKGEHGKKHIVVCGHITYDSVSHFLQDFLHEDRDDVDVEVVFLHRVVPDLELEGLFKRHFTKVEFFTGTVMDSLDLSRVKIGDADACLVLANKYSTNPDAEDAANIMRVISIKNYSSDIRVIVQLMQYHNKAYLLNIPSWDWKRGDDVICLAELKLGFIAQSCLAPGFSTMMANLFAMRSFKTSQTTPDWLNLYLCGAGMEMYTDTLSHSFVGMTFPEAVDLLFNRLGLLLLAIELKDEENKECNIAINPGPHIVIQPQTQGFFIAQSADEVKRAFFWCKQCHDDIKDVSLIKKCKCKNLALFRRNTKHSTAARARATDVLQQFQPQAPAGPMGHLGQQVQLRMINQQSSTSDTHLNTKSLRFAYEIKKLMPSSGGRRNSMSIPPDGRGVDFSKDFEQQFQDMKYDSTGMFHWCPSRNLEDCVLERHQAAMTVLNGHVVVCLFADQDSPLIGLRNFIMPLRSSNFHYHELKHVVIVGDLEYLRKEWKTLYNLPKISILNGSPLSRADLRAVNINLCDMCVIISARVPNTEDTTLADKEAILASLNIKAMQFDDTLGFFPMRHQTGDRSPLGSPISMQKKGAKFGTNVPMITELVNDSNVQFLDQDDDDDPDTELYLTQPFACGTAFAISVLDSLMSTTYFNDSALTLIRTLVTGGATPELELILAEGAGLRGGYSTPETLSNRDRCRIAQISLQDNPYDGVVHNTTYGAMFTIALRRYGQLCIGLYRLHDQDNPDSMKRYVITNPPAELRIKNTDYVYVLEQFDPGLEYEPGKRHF
Protocol: In Vitro Assay 1: C. Eleqans Slo-La—Action at a Recombinant C. elegans Cell Line
Cells were cultured at 37° C. and 5% CO2 in MEMalpha with Gutamax I (Invitrogen, Nr.: 32571), supplemented with 10% (v/v) heat inactivated fetal bovine serum (Invitrogen, Nr.: 10500), G418 (1 mg/ml, Invitrogen, Nr.: 10131). Cells were detached using Accutase (Sigma, Nr.: A6964).
Membrane Potential Measurements
Laboratory compound testing was performed on 384-well microtiter plates (MTPs, Greiner, Nr.: 781092). 8000 cells/well were plated onto 384-well MTPs and cultured for 20 to 24 hours at 37° C. and 5% CO2. After removal of the cell culture medium, the cells were washed once with tyrode (150 mM NaCl, 0.3 mM KCl, 2 mM CaCl2, 1 mM MgCl2, 0.8 mM NaH2PO4, 5 mM Glucose, 28 mM Hepes, pH 7.4) and then loaded with the voltage sensitive dye of the Membrane Potential Assay Kit diluted in tyrode for 1 h at room temperature.
After starting the measurement of fluorescence using a FLIPR Tetra (Molecular Devices, Exc. 510-545 nm, Emm. 565-625 nm), test compounds were added followed by the addition of KCl tyrode (final assay concentration: 70 mM KCl, 2 mM CaCl2, 1 mM MgCl2, 0.8 mM NaH2PO4, 5 mM Glucose, 28 mM Hepes, pH 7.4, including the voltage sensitive dye). The measurement was completed after 7 minutes.

[4] = tested on: Nippostrongylus brasiliensis; experiment: In vitro assay 2: Nippostrongylus brasiliensis (NIPOBR), acetylcholine esterase readout; conditions: adult worms, read-out: activity (reduction of AChE compared to negative control); for inhibition at 1 µg/mL: 1 μg/ml (1 ppm); for inhibition at 10 µg/mL: 10 μg/ml (10 ppm)
Protocol: In Vitro Assay 2: Nippostronqylus Brasiliensis (NIPOBR)
Adult Nippostrongylus brasiliensis were washed with saline buffer containing 100 U/ml penicillin, 0.1 mg/ml streptomycin and 2.5 μg/ml amphotericin B. Test compounds were dissolved in DMSO and worms were incubated in medium in a final concentration of 10 μg/ml (10 ppm) respectively 1 μg/ml (1 ppm). An aliquot of the medium was used to determine the acetylcholine esterase activity in comparison to a negative control. The principle of measuring acetylcholine esterase as readout for anthelmintic activity was described in Rapson et al (1986) and Rapson et al (1987).

[5] = tested on: Dirofilaria immitis third-stage larvae; experiment: In vitro assay 4: Dirofilaria immitis (DIROIM L4), motility of larvae; conditions: 72 h
Haemonchus contortus = experiment: In vitro assay 6: Haemonchus contortus (HAEMCO), larval mortality
Protocol: In Vitro Assay 6: Haemonchus contortus (HAEMCO)
Solvent: dimethyl sulfoxide
Approximately 40 larvae of the red stomach worm (Haemonchus contortus) are transferred into a test tube containing compound solution.
After 5 days the percentage of larval mortality is recorded. 100% efficacy means all larvae are killed, 0% efficacy means no larvae are killed.

[6] = Haemonchus contortus, 120 h, read-out: activity (percentage of larval mortality)

Structure (SMILES) | EC50 [1] | mortality at 20 ppm (Cooperia curticei) | EC50 [2] | chromatographic logP [3] | EC50 (C. elegans Slo-1a) | inhibition at 1 µg/mL [4] | inhibition at 10 µg/mL [4] | EC50 [5] | mortality at 20 ppm (Haemonchus contortus; [6]) | mortality at 4 ppm (Haemonchus contortus; [6]) | activity (percentage of larval mortality) (Haemonchus contortus; application rate 20 ppm, after 5 days) | pE50 (C. elegans Slo-1a; CHO cells expressing C. elegans Slo-1a, voltage sensitive dye, FLIPR Tetra, negative decadic logarithm of EC50)
Cc1nn2c(C(C)C)c(C(=O)N[C@H]3CCOc4ccccc43)cnc2c1-c1cccc(C(F)(F)F)c1 [Example 6] | < 1 µg/mL | 80% | < 1 µg/mL | 5.03 | 12.6 nM | – | – | – | – | – | – | –
COc1c(F)ccc(-c2c(C)nn3c(C(C)C)c(C(=O)N[C@H]4CCOc5ccccc54)cnc23)c1F [Example 192] | < 0.1 µg/mL | 100% | < 0.1 µg/mL | 4.32 | 0.398 nM | > 80% | > 80% | < 0.1 µg/mL | 90% | – | – | –
COc1ccc(F)c(-c2c(C)nn3c(C(C)C)c(C(=O)N[C@H]4CCOc5ccccc54)cnc23)c1F [Example 232] | < 1 µg/mL | 80% | < 0.1 µg/mL | 4.04 | 5.01 nM | – | > 80% | < 0.1 µg/mL | – | – | – | –
Cc1nn2c(C(C)C)c(C(=O)N[C@H]3CCOc4ccccc43)cnc2c1-c1cc(Cl)cc(Cl)c1Cl [Example 234] | < 0.1 µg/mL | 90% | < 0.1 µg/mL | 5.48 | 1.26 nM | > 80% | > 80% | < 0.1 µg/mL | 90% | – | – | –
Cc1nn2c(C(C)C)c(C(=O)N[C@H]3CCOc4ccccc43)cnc2c1-c1cc(Cl)cc(C(F)(F)F)c1 [Example 240] | < 1 µg/mL | 90% | – | 5.65 | 5.01 nM | > 80% | > 80% | – | – | – | – | –
COc1cc(-c2c(C)nn3c(C(C)C)c(C(=O)N[C@H]4CCOc5ccccc54)cnc23)ccc1F [Example 244] | < 1 µg/mL | 90% | < 0.1 µg/mL | 4.32 | 6.31 nM | > 80% | > 80% | < 0.1 µg/mL | – | – | – | –
Cc1nn2c(C(C)C)c(C(=O)N[C@H]3CCOc4ccccc43)cnc2c1-c1c(F)cc(Cl)cc1F [Example 246] | < 0.1 µg/mL | – | < 0.1 µg/mL | 4.82 | 6.31 nM | > 80% | > 80% | < 0.1 µg/mL | – | – | – | –
Cc1nn2c(C(C)C)c(C(=O)N[C@H]3CCOc4ccccc43)cnc2c1-c1c(F)ccc(F)c1F [Example 253] | < 0.1 µg/mL | – | < 0.1 µg/mL | 4.32 | 1.26 nM | – | > 80% | < 0.1 µg/mL | – | 80% | – | –
Cc1nn2c(C(C)C)c(C(=O)N[C@H]3CCOc4ccccc43)cnc2c1-c1c(F)ccc(Cl)c1F [Example 255] | < 0.1 µg/mL | 90% | < 0.1 µg/mL | 4.72 | 1.58 nM | > 80% | > 80% | < 0.1 µg/mL | 90% | – | – | –
Cc1nn2c(C(C)C)c(C(=O)N[C@H]3CCOc4ccccc43)cnc2c1-c1cc(Cl)ccc1F [Example 256] | < 0.1 µg/mL | 80% | < 0.1 µg/mL | 4.87 | 2.51 nM | – | – | < 0.1 µg/mL | 80% | – | – | –
Cc1nn2c(C(C)C)c(C(=O)N[C@H]3CCOc4ccccc43)cnc2c1-c1c(Cl)ccc(F)c1F [Example 258] | < 1 µg/mL | – | < 0.1 µg/mL | 4.46 | 1.58 nM | > 80% | > 80% | < 0.1 µg/mL | – | – | – | –
Cc1nn2c(C(C)C)c(C(=O)N[C@H]3CCOc4ccccc43)cnc2c1-c1cccc(N(C)C)c1F [Example 260] | < 1 µg/mL | 90% | – | 4.18 | 3.16 nM | > 80% | > 80% | – | 80% | – | – | –
Cc1nn2c(C(C)C)c(C(=O)N[C@H]3CCc4ccccc43)cnc2c1-c1cc(Cl)cc(Cl)c1F [Example 261] | < 0.1 µg/mL | 80% | – | 5.65 | 1.58 nM | > 80% | > 80% | < 0.1 µg/mL | – | – | – | –
Cc1nn2c(C(C)C)c(C(=O)N[C@H]3CCOc4ccccc43)cnc2c1-c1cc(Cl)cc(Cl)c1F [Example 262] | < 0.1 µg/mL | 90% | < 0.1 µg/mL | 5.36 | 0.501 nM | > 80% | > 80% | < 0.1 µg/mL | – | – | – | –
Cc1nn2c(C(C)C)c(C(=O)N[C@H]3CCc4ccccc43)cnc2c1-c1cccc(N(C)C)c1 [Example 299] | < 0.1 µg/mL | 80% | – | 3.9 | 15.8 nM | – | – | – | – | – | – | –
Cc1nn2c(C(C)C)c(C(=O)N[C@H]3CCc4ccccc43)cnc2c1-c1cc(Cl)cc(C(F)(F)F)c1 [Example 317] | < 1 µg/mL | – | < 0.1 µg/mL | 6.07 | 15.8 nM | – | > 80% | < 0.1 µg/mL | – | – | – | –
COc1cc(Cl)cc(-c2c(C)nn3c(C(C)C)c(C(=O)N[C@H]4CCOc5ccccc54)cnc23)c1 [Example 403] | < 0.1 µg/mL | – | < 0.1 µg/mL | 4.96 | 158 nM | – | > 80% | < 0.1 µg/mL | – | – | – | –
Cc1nn2c(C3CC3)c(C(=O)N[C@H]3CCc4ccccc43)cnc2c1-c1c(F)ccc(Cl)c1F [Example 436] | < 0.1 µg/mL | 80% | < 0.1 µg/mL | 4.18 | 1.58 nM | > 80% | > 80% | < 0.1 µg/mL | 80% | – | – | –
Cc1nn2c(C3CC3)c(C(=O)N[C@H]3CCc4ccccc43)cnc2c1-c1c(F)cccc1Cl [Example 442] | < 0.1 µg/mL | – | < 0.1 µg/mL | 3.89 | 2 nM | – | > 80% | < 0.1 µg/mL | – | – | – | –
Cc1nn2c(C3CC3)c(C(=O)N[C@H]3CCOc4ccccc43)cnc2c1-c1cccc(N(C)C)c1 [Example 453] | < 1 µg/mL | 80% | – | 2.72 | 2.51 nM | – | > 80% | – | – | – | – | –
Cc1nn2c(C3CC3)c(C(=O)N[C@H]3CCOc4ccccc43)cnc2c1-c1c(Cl)cccc1Cl [Example 467] | < 0.1 µg/mL | – | < 0.1 µg/mL | 3.88 | 0.398 nM | – | > 80% | < 0.1 µg/mL | – | – | – | –
Cc1nn2c(C3CC3)c(C(=O)N[C@H]3CCOc4ccccc43)cnc2c1-c1cccc(Cl)c1Cl [Example 473] | < 0.1 µg/mL | 90% | < 0.1 µg/mL | 4.07 | 0.501 nM | > 80% | > 80% | < 0.1 µg/mL | – | – | – | –
Cc1nn2c(C3CC3)c(C(=O)N[C@H]3CCOc4ccccc43)cnc2c1-c1cccc2c1CCN2C [Example 474] | < 1 µg/mL | 90% | < 0.1 µg/mL | 3.25 | 6.31 nM | – | > 80% | < 0.1 µg/mL | – | – | – | –
Cc1nn2c(C3CC3)c(C(=O)N[C@H]3CCOc4ccccc43)cnc2c1-c1ccc(F)cc1Cl [Example 475] | < 0.1 µg/mL | – | < 0.1 µg/mL | 3.79 | 2 nM | > 80% | – | < 0.1 µg/mL | – | – | – | –
CCc1c(C(=O)N[C@H]2CCOc3ccccc32)cnc2c(-c3c(F)ccc(Cl)c3F)c(C)nn12 [Example 489] | – | – | – | – | – | – | – | – | – | – | 90% | 8.8
Cc1nn2c(N3CCOCC3)c(C(=O)N[C@H]3CCOc4ccccc43)cnc2c1-c1cccc(C(F)(F)F)c1Cl [Example 532] | < 0.1 µg/mL | 100% | – | 5.59 | 1 nM | – | – | – | 90% | – | – | –
COc1c(F)ccc(-c2c(C)nn3c(N4CCOCC4)c(C(=O)N[C@H]4CCOc5ccccc54)cnc23)c1F [Example 533] | < 0.1 µg/mL | – | < 0.1 µg/mL | 4.46 | 1.26 nM | > 80% | – | < 0.1 µg/mL | – | – | – | –
Cc1nn2c(C3CC3)c(C(=O)N[C@H]3CCOc4ccccc43)cnc2c1-c1cc(Cl)cc(Cl)c1Cl [Example 538] | < 0.1 µg/mL | – | < 0.1 µg/mL | 4.8 | 0.316 nM | > 80% | – | < 0.1 µg/mL | – | – | – | –
CNc1c(C(=O)N[C@H]2CCOc3ccccc32)cnc2c(-c3cccc(Cl)c3Cl)c(C)nn12 [Example 548] | < 0.1 µg/mL | 90% | – | 4.18 | 6.31 nM | – | – | – | 90% | – | – | –

Source: patent US11001590B2, “Pyrazolopyrimidine derivatives” (BAYER ANIMAL HEALTH GMBH, priority 2016, dated 2021)
